In EP3623369A1, “NOVEL MORPHOLINYL AMINE COMPOUNDS FOR THE TREATMENT OF AUTOIMMUNE DISEASE” (F. Hoffmann-La Roche AG, priority 2018, dated 2020) one finds IC50 data, which are given here for 20 compounds.

The target of the assay is T1, hTLR9 (Homo sapiens, UniProt Q9NR96).
T1 sequence (Q9NR96 26-1032): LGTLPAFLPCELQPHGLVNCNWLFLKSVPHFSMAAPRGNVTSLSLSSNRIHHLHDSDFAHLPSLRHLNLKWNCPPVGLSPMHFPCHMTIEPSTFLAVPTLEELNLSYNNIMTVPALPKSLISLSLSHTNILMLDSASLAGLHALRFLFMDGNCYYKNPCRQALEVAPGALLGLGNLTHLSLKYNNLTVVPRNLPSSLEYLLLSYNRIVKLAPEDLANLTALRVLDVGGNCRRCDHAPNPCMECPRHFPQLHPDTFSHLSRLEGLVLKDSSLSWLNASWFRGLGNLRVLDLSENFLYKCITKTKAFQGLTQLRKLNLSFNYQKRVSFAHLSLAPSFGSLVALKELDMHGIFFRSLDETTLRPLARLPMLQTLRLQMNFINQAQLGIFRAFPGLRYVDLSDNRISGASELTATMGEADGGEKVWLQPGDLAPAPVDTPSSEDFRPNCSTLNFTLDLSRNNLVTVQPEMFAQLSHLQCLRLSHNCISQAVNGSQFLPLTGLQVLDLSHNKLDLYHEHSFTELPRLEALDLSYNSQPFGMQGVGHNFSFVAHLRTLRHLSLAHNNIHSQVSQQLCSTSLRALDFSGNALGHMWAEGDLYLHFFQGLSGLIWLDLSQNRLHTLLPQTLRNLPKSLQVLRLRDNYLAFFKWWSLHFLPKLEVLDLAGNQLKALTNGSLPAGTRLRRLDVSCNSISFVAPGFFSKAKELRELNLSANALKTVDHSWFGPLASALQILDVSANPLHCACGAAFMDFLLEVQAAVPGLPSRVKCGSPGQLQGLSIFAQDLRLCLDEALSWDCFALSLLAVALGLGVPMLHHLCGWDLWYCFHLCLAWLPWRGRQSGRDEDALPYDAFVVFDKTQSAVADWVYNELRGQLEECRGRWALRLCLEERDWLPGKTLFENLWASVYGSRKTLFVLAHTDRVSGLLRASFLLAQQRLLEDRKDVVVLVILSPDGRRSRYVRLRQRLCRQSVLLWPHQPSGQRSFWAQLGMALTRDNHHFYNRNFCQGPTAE
Put plainly: HEK293-Blue-hTLR-9 cells assay (SEAP reporter, ODN2006 stimulation). The assay is classed as cell-based. Conditions: HEK293-Blue-hTLR9 cells, ODN2006, 20 hrs; 0.032 is the lowest tested concentration; read-out: HEK/hTLR9 IC50. On the procedure: The following tests were carried out in order to determine the activity of the compounds of formula (I) or (Ia) in HEK293-Blue-hTLR-7/8/9 cells assay.
HEK293-Blue-hTLR-9 cells assay:
A stable HEK293-Blue-hTLR-9 cell line was purchased from InvivoGen (Cat.#: hkb-htlr9, San Diego, California, USA). These cells were originally designed for studying the stimulation of human TLR9 by monitoring the activation of NF-κB. A SEAP (secreted embryonic alkaline phosphatase) reporter gene was placed under the control of the IFN-β minimal promoter fused to five NF-κB and AP-1-binding sites. The SEAP was induced by activating NF-κB and AP-1 via stimulating HEK-Blue hTLR9 cells with TLR9 ligands. Therefore the reporter expression was declined by TLR9 antagonist under the stimulation of a ligand, such as ODN2006 (Cat.#: tlrl-2006-1, Invivogen, San Diego, California, USA), for incubation of 20 hrs. The cell culture supernatant SEAP reporter activity was determined using QUANTI-Blue™ kit (Cat.#: rep-qb1, Invivogen, San Diego, California, USA) at a wavelength of 640 nm, a detection medium that turns purple or blue in the presence of alkaline phosphatase.
HEK293-Blue-hTLR9 cells were incubated at a density of 250,000∼450,000 cells/mL in a volume of 170 µL in a 96-well plate in Dulbecco's Modified Eagle's medium (DMEM) containing 4.5 g/L glucose, 50 U/mL penicillin, […], […], 2 mM L-glutamine, 10% (v/v) heat-inactivated fetal bovine serum with addition of 20 µL test compound in a serial dilution in the presence of final DMSO at 1% and 10 µL of 20uM ODN2006 in above DMEM, perform incubation under 37 °C in a CO2 incubator for 20 hrs. Then 20 µL of the supernatant from each well was incubated with 180 µL Quanti-blue substrate solution at 37 °C for 2 hrs and the absorbance was read at 620∼655 nm using a spectrophotometer. The signalling pathway that TLR9 activation leads to downstream NF-κB activation has been widely accepted, and therefore similar reporter assay was modified for evaluating TLR9 antagonist.
On to `C[C@@H]1CN(c2ccc(Cl)c3ncccc23)C[C@H](CN2Cc3ccc(N4CCNCC4)cc3C2)O1` [Example 31, (2R,6S)-4-(8-chloro-5-quinolyl)-2-methyl-6-[(5-piperazin-1-ylisoindolin-2-yl)methyl]morpholine], for which the IC50 turned out to be 168 nM.

In the case of `C[C@@H]1CN(c2ccc(Cl)c3ncccc23)C[C@H](CN2CCc3cc(N4CCNCC4)ccc3C2)O1` [Example 32, (2R,6S)-4-(8-chloro-5-quinolyl)-2-methyl-6-[(6-piperazin-1-yl-3,4-dihydro-1H-isoquinolin-2-yl)methyl]morpholine], the IC50 was 123 nM.

Consider `C[C@@H]1CN(c2ccc(Cl)c3nccnc23)C[C@H](CN2Cc3ccc(N4CCNCC4)cc3C2)O1` [Example 33, (2R,6S)-4-(8-chloroquinoxalin-5-yl)-2-methyl-6-[(5-piperazin-1-ylisoindolin-2-yl)methyl]morpholine], for which the IC50 turned out to be 174 nM.

On to `C[C@@H]1CN(c2ccc(Cl)c3nccnc23)C[C@H](CN2CCc3cc(N4CCNCC4)ccc3C2)O1` [Example 34, (2R,6S)-4-(8-chloroquinoxalin-5-yl)-2-methyl-6-[(6-piperazin-1-yl-3,4-dihydro-1H-isoquinolin-2-yl)methyl]morpholine], for which the IC50 amounted to 125 nM.

Regarding `C[C@@H]1CN(c2ccc(C#N)c3nccnc23)C[C@H](CN2Cc3ccc(N4CCN(C5CC5)CC4)cc3C2)O1` [Example 35, 8-[(2S,6R)-2-[[5-(4-cyclopropylpiperazin-1-yl)isoindolin-2-yl]methyl]-6-methyl-morpholin-4-yl]quinoxaline-5-carbonitrile], the IC50 is 216 nM.

Turning to `CC1CN(c2ccc3c(c2)CN(C[C@H]2CN(c4ccc(C#N)c5nccnc45)C[C@@H](C)O2)C3)CCN1` (stereo partly drawn) [Example 36, 8-[(2R,6S)-2-methyl-6-[[5-(3-methylpiperazin-1-yl)isoindolin-2-yl]methyl]morpholin-4-yl]quinoxaline-5-carbonitrile], the IC50 was 57 nM.

For the compound `COCCN1CCN(c2ccc3c(c2)CN(C[C@H]2CN(c4ccc(C#N)c5nccnc45)C[C@@H](C)O2)C3)CC1` [Example 37, 8-[(2S,6R)-2-[[5-[4-(2-methoxyethyl)piperazin-1-yl]isoindolin-2-yl]methyl]-6-methyl-morpholin-4-yl]quinoxaline-5-carbonitrile], the IC50 is 260 nM.

On to `C[C@@H]1CN(c2ccc(C#N)c3nccnc23)C[C@H](CN2Cc3ccc(N4CCNC5(CC5)C4)cc3C2)O1` [Example 38, 8-[(2S,6R)-2-[[5-(4,7-diazaspiro[2.5]octan-7-yl)isoindolin-2-yl]methyl]-6-methyl-morpholin-4-yl]quinoxaline-5-carbonitrile], for which the IC50 is 227 nM.

For the compound `C[C@@H]1CN(c2ccc(C#N)c3nccnc23)C[C@H](CN2Cc3ccc(N4CCN5CCCCC5C4)cc3C2)O1` (stereo partly drawn) [Example 40, 8-[(2S,6R)-2-[[5-(1,3,4,6,7,8,9,9a-octahydropyrido[1,2-a]pyrazin-2-yl)isoindolin-2-yl]methyl]-6-methyl-morpholin-4-yl]quinoxaline-5-carbonitrile], the IC50 was determined as 122 nM.

Consider `C[C@@H]1CN(c2ccc(C#N)c3nccnc23)C[C@H](CN2Cc3ccc(N4C5CCC4CNC5)cc3C2)O1` [Example 41, 8-[(2S,6R)-2-[[5-(3,8-diazabicyclo[3.2.1]octan-8-yl)isoindolin-2-yl]methyl]-6-methyl-morpholin-4-yl]quinoxaline-5-carbonitrile], for which the IC50 turned out to be 227 nM.

With `C[C@@H]1CN(c2ccc(C#N)c3ncccc23)C[C@H](CN2Cc3ccc(N4CC5CCC(C4)N5)cc3C2)O1` [Example 42, 5-[(2S,6R)-2-[[5-(3,8-diazabicyclo[3.2.1]octan-3-yl)isoindolin-2-yl]methyl]-6-methyl-morpholin-4-yl]quinoline-8-carbonitrile], the IC50 was 97 nM.

As to `C[C@@H]1CN(c2ccc(C#N)c3ncccc23)C[C@H](CN2Cc3ccc(N4C5CCC4CNC5)cc3C2)O1` [Example 43, 5-[(2S,6R)-2-[[5-(3,8-diazabicyclo[3.2.1]octan-8-yl)isoindolin-2-yl]methyl]-6-methyl-morpholin-4-yl]quinoline-8-carbonitrile], the IC50 turned out to be 88 nM.

In the case of `C[C@@H]1CN(c2ccc(C#N)c3ncccc23)C[C@H](CN2Cc3ccc(N4C5CNCC4COC5)cc3C2)O1` [Example 46, 5-[(2R,6S)-2-methyl-6-[[5-(3-oxa-7,9-diazabicyclo[3.3.1]nonan-9-yl)isoindolin-2-yl]methyl]morpholin-4-yl]quinoline-8-carbonitrile], the IC50 is 75 nM.

Regarding `C[C@@H]1CN(c2ccc(C#N)c3ncccc23)C[C@H](CN2Cc3ccc(N4CC5(CNC5)C4)cc3C2)O1` [Example 47, 5-[(2S,6R)-2-[[5-(2,6-diazaspiro[3.3]heptan-2-yl)isoindolin-2-yl]methyl]-6-methyl-morpholin-4-yl]quinoline-8-carbonitrile], the IC50 came out at 83 nM.

In the case of `CC1c2ccc(N3CCNCC3)cc2CN1C[C@H]1CN(c2ccc(C#N)c3ncccc23)C[C@@H](C)O1` (stereo partly drawn) [Example 48, 5-[(2R,6S)-2-methyl-6-[(1-methyl-5-piperazin-1-yl-isoindolin-2-yl)methyl]morpholin-4-yl]quinoline-8-carbonitrile], the IC50 was determined as 105 nM.

In the case of `C[C@@H]1CN(c2ccc(C#N)c3nccnc23)C[C@H](CN2Cc3ccc(N4CC5COCC(C4)N5)cc3C2)O1` [Example 49, 8-[(2R,6S)-2-methyl-6-[[5-(3-oxa-7,9-diazabicyclo[3.3.1]nonan-7-yl)isoindolin-2-yl]methyl]morpholin-4-yl]quinoxaline-5-carbonitrile], the IC50 came to 164 nM.

With `CCOC(=O)C1CNCCN1c1ccc2c(c1)CN(C[C@H]1CN(c3ccc(C#N)c4ncccc34)C[C@@H](C)O1)C2` (stereo partly drawn) [Example 50, Ethyl 1-[2-[[(2S,6R)-4-(8-cyano-5-quinolyl)-6-methyl-morpholin-2-yl]methyl]isoindolin-5-yl] piperazine-2-carboxylate], the IC50 turned out to be 259 nM.

As for `C[C@@H]1CN(c2ccc(C#N)c3ncccc23)C[C@H](CN2Cc3cc(N4CCNCC4)cc(F)c3C2)O1` [Example 59, 5-[(2S,6R)-2-[(4-fluoro-6-piperazin-1-yl-isoindolin-2-yl)methyl]-6-methyl-morpholin-4-yl]quinoline-8-carbonitrile], the IC50 came to 66 nM.

As to `C[C@@H]1CN(c2ccc(C#N)c3nccnc23)C[C@H](CN2Cc3cnc(N4CCNCC4)cc3C2)O1` [Example 60, 8-[(2R,6S)-2-methyl-6-[(6-piperazin-1-yl-1,3-dihydropyrrolo[3,4-c]pyridin-2-yl)methyl]morpholin-4-yl]quinoxaline-5-carbonitrile], the IC50 came out at 46 nM.

On to `C[C@@H]1CN(c2ccc(C#N)c3ncccc23)C[C@H](CN2Cc3cnc(N4CCNCC4)cc3C2)O1` [Example 61, 5-[(2R,6S)-2-methyl-6-[(6-piperazin-1-yl-1,3-dihydropyrrolo[3,4-c]pyridin-2-yl)methyl]morpholin-4-yl]quinoline-8-carbonitrile], for which the IC50 came out at 59 nM.
